Among the test systems are OVCAR-4 ovarian; DU-145 prostate; SN12C renal; SR leukemia; CAKI-1 renal; SK-MEL-5 melanoma; EKVX NSCLC; SK-OV-3 ovarian; HOP-92 NSCLC; HL-60(TB) leukemia.
What all share (assay): NCI-60 cell line screen, 48 h

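Following 48 hours of exposure in 96-well plates, responses at five concentrations were used to interpolate endpoints linearly. Here, GI50 denotes the concentration required for 50% inhibition of growth. TGI: concentration producing complete growth inhibition.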 A value given as a limit tells only on which side of the number the result lay.

Turning to `CCCCCCCCCCCCCCCCN(CC)CC`, the GI50 is 3.31 µM in the test with OVCAR-4 ovarian; 2.79 µM with DU-145 prostate; 2.21 µM in the test on SN12C renal; 1990 nM with SR leukemia; 1690 nM in the test on CAKI-1 renal; 1940 nM in the test on SK-MEL-5 melanoma. The GI50 in the test on EKVX NSCLC was 2020 nM; in the test on SK-OV-3 ovarian it was 3.1 µM; with HOP-92 NSCLC it was 1740 nM. Moreover, the TGI with OVCAR-4 ovarian was 11.1 µM; in the test with DU-145 prostate it was 7.52 µM; with SN12C renal it was 5.53 µM; with SR leukemia it was 4.51 µM; in the test on CAKI-1 renal, 3.24 µM; with SK-MEL-5 melanoma, 3.79 µM. Also, the TGI with EKVX NSCLC was found to be 4.76 µM; in the test with SK-OV-3 ovarian, 9.8 µM; in the test on HOP-92 NSCLC it was 3.94 µM.
On to `C=C1C(=O)O[C@H]2[C@H]1CC/C(CNC(=O)/C=C/c1ccccc1F)=C\CC[C@@]1(C)O[C@@H]21`, for which the GI50 is 1.66 µM in the test with OVCAR-4 ovarian; 1.03 µM in the test with DU-145 prostate; 1.62 µM with SN12C renal; 482 nM with SR leukemia; 1300 nM in the test on CAKI-1 renal; 1780 nM in the test on SK-MEL-5 melanoma. Also, the values for the GI50 in the test with EKVX NSCLC, in the test with SK-OV-3 ovarian and in the test with HOP-92 NSCLC were 1890 nM, 13.1 µM and 1620 nM, respectively. For the same molecule, the TGI in the test on OVCAR-4 ovarian came to 4.57 µM; with DU-145 prostate, 2.26 µM; in the test on SN12C renal, 4.41 µM; in the test on SR leukemia it was 6.88 µM; in the test on CAKI-1 renal it was 2.67 µM; with SK-MEL-5 melanoma, 3.29 µM. Besides, the TGI with EKVX NSCLC was determined as 5.95 µM; in the test on SK-OV-3 ovarian, 28.3 µM; in the test with HOP-92 NSCLC, 4.13 µM.
For the molecule `Cc1ccc(OCCOCCOCCOCCOCCOc2ccc(C)n(O)c2=S)c(=S)n1O`, the GI50 was 0.0339 µM with OVCAR-4 ovarian; 0.0441 µM in the test on HL-60(TB) leukemia; 0.124 µM with DU-145 prostate; 0.0496 µM with SN12C renal; 45.3 nM with CAKI-1 renal; 49.7 nM in the test on SK-MEL-5 melanoma. Besides, the GI50 in the test on EKVX NSCLC is 39.2 nM; with SK-OV-3 ovarian, 0.0583 µM; in the test with HOP-92 NSCLC, 3060 nM. The TGI was 49.5 µM with OVCAR-4 ovarian; 0.638 µM in the test on HL-60(TB) leukemia; greater than 100 µM in the test with DU-145 prostate; greater than 100 µM in the test with SN12C renal; greater than 100 µM with CAKI-1 renal; 2.89 µM in the test with SK-MEL-5 melanoma. Moreover, the TGI was greater than 100 µM in the test on EKVX NSCLC, greater than 48 µM in the test on SK-OV-3 ovarian and 54.5 µM in the test on HOP-92 NSCLC.
With `COc1cc(O)c2c(c1)C(=O)C1=C(C2=O)C(O)C[C@@](C)(O)C1` (stereo partly specified), the TGI in the test with OVCAR-4 ovarian worked out at 3.01 µM; in the test with HL-60(TB) leukemia, 1.5 µM; in the test on SN12C renal, 2.65 µM; in the test with SR leukemia, 6.14 µM; with CAKI-1 renal it was 14 µM; in the test on EKVX NSCLC, 13.1 µM. In addition, the TGI in the test on SK-OV-3 ovarian is 17.1 µM; in the test on HOP-92 NSCLC it was 3.57 µM.
Turning to `Cn1cc(C2=C(c3cn(CCCCCO)c4ccccc34)C(=O)NC2=O)c2ccccc21`, the GI50 is 5.11 µM in the test on OVCAR-4 ovarian; 4.08 µM in the test with HL-60(TB) leukemia; 8.83 µM with DU-145 prostate; 5.55 µM in the test with SN12C renal; 1570 nM in the test with SR leukemia; 6340 nM in the test with CAKI-1 renal. In addition, the GI50 in the test on SK-MEL-5 melanoma was 3290 nM; with SK-OV-3 ovarian, 4.92 µM. Moreover, the TGI was 17.5 µM in the test with OVCAR-4 ovarian; 11.5 µM in the test with HL-60(TB) leukemia; greater than 25 µM in the test with DU-145 prostate; 19.5 µM with SN12C renal; 11 µM with SR leukemia; greater than 23.3 µM in the test with CAKI-1 renal. Besides, the TGI with SK-MEL-5 melanoma is 6.82 µM; with SK-OV-3 ovarian, 17.8 µM.
Take `O=C(CSSCC(=O)Nc1ccc(Br)cc1)Nc1ccc(Br)cc1`: the TGI in the test on OVCAR-4 ovarian was found to be 35.4 µM; in the test with HL-60(TB) leukemia, 48.5 µM; in the test on SN12C renal, 30.2 µM; with SR leukemia it was 37.9 µM; in the test on CAKI-1 renal it was 50.3 µM; with SK-MEL-5 melanoma it was 45.8 µM. For the same molecule, the TGI with EKVX NSCLC came out at 48.9 µM; in the test on SK-OV-3 ovarian, 40 µM; with HOP-92 NSCLC it was 34.1 µM.
As for `C=CC(=O)N1CC[C@H](n2nc(C#Cc3cc(OC)cc(OC)c3)c3c(N)ncnc32)C1`, the GI50 with OVCAR-4 ovarian is 3.47 µM; in the test on HL-60(TB) leukemia, 6.23 µM; in the test on DU-145 prostate it was 7.56 µM; with SN12C renal it was 4.43 µM; with CAKI-1 renal, 7060 nM; in the test on SK-MEL-5 melanoma it was 9570 nM. Besides, the GI50 in the test with EKVX NSCLC was 30700 nM; in the test with HOP-92 NSCLC it was 1840 nM. In addition, the TGI in the test with OVCAR-4 ovarian is greater than 100 µM; in the test on HL-60(TB) leukemia it was 70.4 µM; in the test with DU-145 prostate, greater than 100 µM; in the test on SN12C renal, greater than 100 µM; in the test on CAKI-1 renal it was greater than 100 µM; in the test on SK-MEL-5 melanoma it was 67.8 µM. For the same molecule, the TGI with EKVX NSCLC is greater than 100 µM; with HOP-92 NSCLC it was 9.23 µM.
As for `C=C1C(=O)C2=CC1CCC(=O)C1(C)CCC(OC(C)=O)C(C)(C)C1CC2O` (stereo unspecified), the TGI was determined as 10.8 µM in the test on OVCAR-4 ovarian; 13.9 µM in the test with DU-145 prostate; 12.5 µM in the test with SN12C renal; 6.2 µM with CAKI-1 renal; 6.09 µM in the test on SK-MEL-5 melanoma; 18.9 µM with EKVX NSCLC. For the same molecule, the TGI was 23 µM in the test on SK-OV-3 ovarian and 20.3 µM in the test with HOP-92 NSCLC.
Consider `N#CCc1nnc(N)o1`, for which the TGI in the test with HL-60(TB) leukemia, with SN12C renal, in the test with SR leukemia, in the test on CAKI-1 renal, in the test on EKVX NSCLC and in the test with SK-OV-3 ovarian was greater than 100 µM each time. Moreover, the TGI with HOP-92 NSCLC is greater than 100 µM.
With `O=C(O)c1cn(C2CC2)c2cc(N3CCN(Cc4c(O)ccc5ccccc45)CC3)c(F)cc2c1=O`, the GI50 in the test on OVCAR-4 ovarian was 7 µM; with HL-60(TB) leukemia, greater than 100 µM; in the test on DU-145 prostate, 3.78 µM; in the test with SN12C renal it was 5.38 µM; in the test on CAKI-1 renal, 3290 nM; in the test with SK-MEL-5 melanoma, 5450 nM. Further, the GI50 in the test on EKVX NSCLC is greater than 100000 nM; with SK-OV-3 ovarian it was 11.7 µM; with HOP-92 NSCLC, 2460 nM. Moreover, the TGI in the test on OVCAR-4 ovarian, in the test on HL-60(TB) leukemia, in the test with DU-145 prostate, in the test with SN12C renal, in the test with CAKI-1 renal and with SK-MEL-5 melanoma was greater than 100 µM throughout. In addition, the TGI with EKVX NSCLC was greater than 100 µM; in the test on SK-OV-3 ovarian it was greater than 100 µM; in the test with HOP-92 NSCLC, 8.88 µM.

Source of the values: PubChem BioAssay (NCI).
